For one assay, the target named is T1, Thromboxane-A synthase (Homo sapiens, UniProt P24557).
T1 sequence (P24557 whole entry): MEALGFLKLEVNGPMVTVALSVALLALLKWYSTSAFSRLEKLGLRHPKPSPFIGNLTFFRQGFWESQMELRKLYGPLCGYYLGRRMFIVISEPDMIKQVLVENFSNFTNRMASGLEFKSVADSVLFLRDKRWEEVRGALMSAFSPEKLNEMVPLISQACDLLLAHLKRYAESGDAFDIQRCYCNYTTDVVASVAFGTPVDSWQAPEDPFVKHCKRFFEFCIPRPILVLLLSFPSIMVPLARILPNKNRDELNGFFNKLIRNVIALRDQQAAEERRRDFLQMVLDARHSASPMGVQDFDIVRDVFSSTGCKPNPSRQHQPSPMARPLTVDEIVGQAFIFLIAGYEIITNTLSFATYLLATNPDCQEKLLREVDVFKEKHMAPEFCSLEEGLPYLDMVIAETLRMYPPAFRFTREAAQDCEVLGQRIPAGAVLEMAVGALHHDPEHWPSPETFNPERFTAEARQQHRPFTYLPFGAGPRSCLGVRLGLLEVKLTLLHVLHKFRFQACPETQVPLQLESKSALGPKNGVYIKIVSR

The target of another assay is T2, Thromboxane A2 receptor (Homo sapiens, UniProt P21731).
T2 sequence (P21731 whole entry): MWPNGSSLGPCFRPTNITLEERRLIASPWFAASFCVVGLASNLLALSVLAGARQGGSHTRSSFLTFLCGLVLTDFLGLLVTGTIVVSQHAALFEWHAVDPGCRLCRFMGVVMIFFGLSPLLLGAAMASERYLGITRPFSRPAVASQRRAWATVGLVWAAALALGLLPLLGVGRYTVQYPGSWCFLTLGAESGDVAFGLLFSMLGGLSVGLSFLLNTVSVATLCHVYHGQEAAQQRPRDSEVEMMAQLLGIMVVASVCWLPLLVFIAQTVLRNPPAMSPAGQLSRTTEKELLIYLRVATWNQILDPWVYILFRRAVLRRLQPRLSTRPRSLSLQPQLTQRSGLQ

For another assay, the species on record is Homo sapiens. The assay can be described thus: tissue or blood. It is filed as functional, organism-based. The settings on record: Plasma.

Each structure is given as a SMILES string. Where “and” joins values, the source holds several entries; their conditions need not be identical. Equal entries are not always repeated.

One may read the IC50 as the concentration needed to halve the response being measured. By EC50 is commonly meant the concentration at which the effect is half-maximal. A higher EC50 goes with a need for much substance.

Description for Homo sapiens: Inhibition of collagen-induced platelet aggregation in human platelet-rich plasma.
Description for Thromboxane-A synthase: Inhibition test of thromboxane A2 synthetase in human gel-filtered platelets.

In the case of `NC(=O)CN(CCc1ccc(/C(=C\CCCC(=O)O)c2cccnc2)cc1)S(=O)(=O)c1ccc(Cl)cc1`, the IC50 at Thromboxane-A synthase was 5 nM; against Thromboxane A2 receptor, 49 nM. The compound also displayed an EC50 in the assay listed under Homo sapiens of 9200 nM.
In the same order, the values of `CN(CCc1ccc(/C(=C\CCCC(=O)O)c2cccnc2)cc1)S(=O)(=O)c1ccc(Cl)cc1` are 15 nM, 25 nM and 24000 nM.
For the compound `O=C(O)CCC/C=C(\c1ccc(CCNS(=O)(=O)c2ccc(Cl)cc2)cc1)c1ccc[n+]([O-])c1`, the 50% inhibitory concentration (IC50) against Thromboxane-A synthase worked out at 45000 nM; on Thromboxane A2 receptor, 1100 nM. The EC50 in the assay filed under Homo sapiens was above 100000 nM.
Take `O=C(O)CCC/C=C(\c1ccc(CCNC(=O)Cc2ccccc2)cc1)c1cccnc1`: the values for the IC50 at Thromboxane-A synthase and against Thromboxane A2 receptor were 21 nM and 1200 nM, respectively. The compound also registered a concentration for a half-maximal effect (EC50) in the assay filed under Homo sapiens of 9500 nM.
On to `O=C(O)CCCCO/N=C(/c1cccnc1)c1cccc(C(F)(F)F)c1` [RIDOGREL], for which the IC50 on Thromboxane-A synthase is 4 nM and 8 nM; against Thromboxane A2 receptor, 1700 nM and 5200 nM. In the assay filed under Homo sapiens, this compound displayed an EC50 of 16000 nM.
For `Cc1ccc(S(=O)(=O)NCCc2ccc(/C(=C\C(=O)NCC(=O)O)c3cccnc3)cc2)cc1`, the results for the IC50 against Thromboxane-A synthase and against Thromboxane A2 receptor were 15000 nM and 3000 nM, respectively. Also, the EC50 in the assay filed under Homo sapiens is above 100000 nM.
In the same order, the values of `O=C(O)CCC/C=C(\c1ccc(CCNS(=O)(=O)Cc2ccccc2)cc1)c1cccnc1` are 5 nM, 260 nM and 5300 nM.
For `O=C(O)c1ccc(/C=C(\c2ccc(CCNS(=O)(=O)c3ccc(Cl)cc3)cc2)c2cccnc2)cc1`, in that order: 27 nM, 130 nM and 52000 nM.
For `O=C(O)CCC/C=C(\c1ccc(CNS(=O)(=O)c2ccc(Cl)cc2)cc1)c1cccnc1`, in that order: 7 nM, 55 nM and 5000 nM.
Regarding `O=C(O)c1cccc(/C=C(\c2ccc(CCNS(=O)(=O)c3ccc(Cl)cc3)cc2)c2cccnc2)c1`, the half-inhibitory concentration (IC50) at Thromboxane-A synthase came out at 4 nM; against Thromboxane A2 receptor it was 100 nM. The EC50 in the assay filed under Homo sapiens stood at 30000 nM.
Take `O=C(O)CCC/C=C(/c1cccnc1)c1ccc2c(c1)CC(NS(=O)(=O)c1ccc(F)cc1)C2` (centres undefined): the half-inhibitory concentration (IC50) amounted to 1 nM against Thromboxane-A synthase and 9 nM against Thromboxane A2 receptor. This compound returned a half-maximal effective concentration (EC50) in the assay listed under Homo sapiens of 560 nM.
For `CNC(=O)CCC/C=C(\c1ccc(CCNS(=O)(=O)c2ccc(Cl)cc2)cc1)c1cccnc1`, in that order: 250 nM, 170 nM and 24000 nM.
`CC(C)(C)OC(=O)CCC/C=C(\c1ccc(CCNS(=O)(=O)c2ccc(Cl)cc2)cc1)c1cccnc1`: the 50% inhibitory concentration (IC50) at Thromboxane-A synthase came to 150 nM; against Thromboxane A2 receptor, 200 nM. This compound also had a concentration giving a half-maximal response (EC50) in the assay listed under Homo sapiens of 60000 nM.
Regarding `O=C(O)CCC/C=C(/c1cccnc1)c1cccc(CNS(=O)(=O)c2ccc(Cl)cc2)c1`, the values for the IC50 at Thromboxane-A synthase and against Thromboxane A2 receptor were 5 nM and 21 nM, respectively. The midpoint of the response in the assay listed under Homo sapiens, the EC50, lay at 3800 nM.
In the same order, the values of `COc1ccc(S(=O)(=O)NCCc2ccc(/C(=C\CCCC(=O)O)c3cccnc3)cc2)cc1` are 5 nM, 52 nM and 10000 nM.
On to `O=C(O)C/C=C(\c1ccc(CCNS(=O)(=O)c2ccc(Cl)cc2)cc1)c1cccnc1`, for which the half-inhibitory concentration (IC50) at Thromboxane-A synthase was 1000 nM; on Thromboxane A2 receptor it was 12 nM. In the assay listed under Homo sapiens, this compound registered an EC50 of 37000 nM.
In the same order, the values of `O=C(O)CCC/C=C(\c1ccc(CCN(CCN2CCOCC2)S(=O)(=O)c2ccc(Cl)cc2)cc1)c1cccnc1` are 4 nM, 58 nM and 21000 nM.
Turning to `CCN(CCc1ccc(/C(=C\CCCC(=O)O)c2cccnc2)cc1)S(=O)(=O)c1ccc(Cl)cc1`, the values for the half-maximal inhibitory concentration (IC50) on Thromboxane-A synthase and against Thromboxane A2 receptor were 4 nM and 33 nM, respectively. The concentration for a half-maximal effect (EC50) in the assay listed under Homo sapiens amounted to 13000 nM.
In the same order, the values of `O=C(O)CCCCC(c1ccc(CCNS(=O)(=O)c2ccc(Cl)cc2)cc1)c1cccnc1` (centres undefined) are 2 nM, 84 nM and 1200 nM.
Take `CC(C)N(CCc1ccc(/C(=C\CCCC(=O)O)c2cccnc2)cc1)S(=O)(=O)c1ccc(Cl)cc1`: the results for the half-maximal inhibitory concentration (IC50) against Thromboxane-A synthase and against Thromboxane A2 receptor were 25 nM and 51 nM, respectively. In the assay filed under Homo sapiens, this compound gave a half-maximal effective concentration (EC50) above 100000 nM.
Take `O=C(O)CCC/C=C(/c1cccnc1)c1cccc(CCNS(=O)(=O)c2ccc(Cl)cc2)c1`: the half-inhibitory concentration (IC50) against Thromboxane-A synthase came to 4 nM; against Thromboxane A2 receptor, 12 nM. Also, a half-maximal effect in the assay listed under Homo sapiens (EC50) was put at 1700 nM.
For `COC(=O)CCC/C=C(\c1ccc(CCNS(=O)(=O)c2ccc(Cl)cc2)cc1)c1cccnc1`, in that order: 33 nM, 36 nM and 11000 nM.
For `O=C(O)CCC/C=C(\c1ccc(CCNS(=O)(=O)c2ccc(F)cc2)cc1)c1cccnc1`, the results for the IC50 on Thromboxane-A synthase and against Thromboxane A2 receptor were 4 nM and 66 nM, respectively. The response in the assay listed under Homo sapiens was half-maximal at 3100 nM (EC50).
As to `O=C(O)CCC/C=C(\c1ccc(CCN(Cc2ccc(C(=O)O)cc2)S(=O)(=O)c2ccc(Cl)cc2)cc1)c1cccnc1`, the IC50 on Thromboxane-A synthase was 46 nM; on Thromboxane A2 receptor, 28 nM. Further, in the assay listed under Homo sapiens, the EC50 is above 100000 nM.
In the same order, the values of `O=C(O)CCC/C=C(/c1cccnc1)c1ccc2c(c1)CCC(NS(=O)(=O)c1ccc(Cl)cc1)C2` (centres undefined) are 8 nM, 13 nM and 5000 nM.
As to `Cc1cc(C)c(S(=O)(=O)NCCc2ccc(/C(=C\CCCC(=O)O)c3cccnc3)cc2)c(C)c1`, the IC50 against Thromboxane-A synthase came to 19 nM; on Thromboxane A2 receptor it was 42 nM. In addition, in the assay listed under Homo sapiens, the EC50 worked out at 30000 nM.
Turning to `Cc1ccc(S(=O)(=O)NCCc2ccc(/C(=C\C(=O)O)c3cccnc3)cc2)cc1`, the 50% inhibitory concentration (IC50) was determined as 2700 nM against Thromboxane-A synthase and 1200 nM against Thromboxane A2 receptor. In the assay listed under Homo sapiens, the concentration for a half-maximal effect (EC50) was above 100000 nM.
Consider `O=C(O)CCC/C=C(\CCCNS(=O)(=O)c1ccc(Cl)cc1)c1cccnc1`, for which the values for the concentration for half-maximal inhibition (IC50) on Thromboxane-A synthase and on Thromboxane A2 receptor were 24 nM and 330 nM, respectively. Further, the EC50 in the assay filed under Homo sapiens was 47000 nM.
In the case of `O=C(O)CCC/C=C(\c1ccc(CCN(Cc2ccccc2)S(=O)(=O)c2ccc(Cl)cc2)cc1)c1cccnc1`, the figures for the IC50 at Thromboxane-A synthase and against Thromboxane A2 receptor were 43 nM and 62 nM, respectively. The same compound registered an EC50 in the assay listed under Homo sapiens of 11000 nM.
Regarding `O=C(O)CCCC(c1ccc(CCNS(=O)(=O)c2ccc(Cl)cc2)cc1)c1cccnc1` (centres undefined), the IC50 stood at 98 nM against Thromboxane-A synthase and 74 nM against Thromboxane A2 receptor. In addition, it took 12000 nM to reach a half-maximal effect in the assay filed under Homo sapiens (EC50).
In the same order, the values of `O=C(O)CCC/C=C(\c1ccc(CCN(CC(=O)O)S(=O)(=O)c2ccc(Cl)cc2)cc1)c1cccnc1` are 310 nM, 61 nM and 44000 nM.
For `O=C(O)CCC/C=C(\c1ccc(CCNS(=O)(=O)c2ccc(C(F)(F)F)cc2)cc1)c1cccnc1`, in that order: 6 nM, 28 nM and 2800 nM.
For `O=C(O)CCC/C=C(\c1ccc(CCNS(=O)(=O)c2ccc(Cl)cc2)cc1)c1cccnc1` [SAMIXOGREL], in that order: 4 nM, 19 nM and 1000 nM.
As for `COc1ccc(S(=O)(=O)NCCc2ccc(/C(=C\CCCC(=O)O)c3cccnc3)cc2)cc1OC`, the half-inhibitory concentration (IC50) on Thromboxane-A synthase came out at 5 nM; on Thromboxane A2 receptor, 340 nM. Further, a half-maximal response in the assay filed under Homo sapiens (EC50) required 16000 nM.
For `O=C(O)CCC/C=C(/c1cccnc1)c1cccc(NS(=O)(=O)c2ccc(Cl)cc2)c1`, in that order: 7 nM, 60 nM and 40000 nM.
On to `NC(=O)CCC/C=C(\c1ccc(CCNS(=O)(=O)c2ccc(Cl)cc2)cc1)c1cccnc1`, for which the concentration for half-maximal inhibition (IC50) was found to be 39 nM on Thromboxane-A synthase and 94 nM at Thromboxane A2 receptor. Besides, the response in the assay listed under Homo sapiens was half-maximal at 28000 nM (EC50).
For `O=C(O)CCO/N=C(\c1ccc(CCNS(=O)(=O)c2ccc(Cl)cc2)cc1)c1cccnc1`, in that order: 60 nM, 26 nM and 4300 nM.
In the same order, the values of `O=C(O)CCCCCC(c1ccc(CCNS(=O)(=O)c2ccc(Cl)cc2)cc1)c1cccnc1` (centres undefined) are 31 nM, 210 nM and 1200 nM.
As for `O=C(O)CCC/C=C(\c1ccc(CCNS(=O)(=O)c2ccccc2)cc1)c1cccnc1`, the IC50 is 5 nM at Thromboxane-A synthase and 81 nM at Thromboxane A2 receptor. Moreover, a half-maximal effect in the assay listed under Homo sapiens (EC50) was put at 3400 nM.
For `O=C(O)CC/C=C(\c1ccc(CCNS(=O)(=O)c2ccc(Cl)cc2)cc1)c1cccnc1`, in that order: 21 nM, 42 nM and 36000 nM.
For `O=C(O)CCC/C=C(\c1ccc(CCNC(=O)c2ccc(Cl)cc2)cc1)c1cccnc1`, the IC50 against Thromboxane-A synthase stood at 43 nM; against Thromboxane A2 receptor, 210 nM. This compound also registered an EC50 in the assay listed under Homo sapiens of 55000 nM.
As to `O=C(O)CCC/C=C(/c1ccc(CCNS(=O)(=O)c2ccc(Cl)cc2)cc1)c1cccnc1`, the IC50 at Thromboxane-A synthase was 490 nM; against Thromboxane A2 receptor it was 380 nM. The compound also returned an EC50 in the assay filed under Homo sapiens of 43000 nM.
Consider `Cn1c(CCNS(=O)(=O)c2ccc(F)cc2)ccc1/C(=C\CCCC(=O)O)c1cccnc1`, for which the IC50 on Thromboxane-A synthase was found to be 4 nM; on Thromboxane A2 receptor it was 230 nM. For the same compound, the EC50 in the assay listed under Homo sapiens came to 1100 nM.

For the origin of these results see ChEMBL document CHEMBL1127824, “6,6-Disubstituted Hex-5-enoic acid derivatives as combined thromboxane A2 receptor antagonists and synthetase inhibitors” (J Med Chem, 1994).
